Assay results: paper PMC9482650, “Quantitative fragmentomics allow affinity mapping of interactomes” (Nature Communications, 2022)
Ends that are not written are not given here. * marks the point of attachment. Biotin = O=C1N[C@H]2[C@H](CS[C@H]2CCCCC(=O)*)N1; ttds = NCCCOCCOCCOCCCNC(=O)CCC(=O)*

Test system: Jurkat cell extract preys
Test: PBM-AP-MS, PBM peptide baits
Assay type: binding, human
Method: HEK293T and HeLa cells were authenticated and found 100% identity to ATCC cat. CRL-3216 and ATCC cat. CCL-2, respectively. Jurkat and HaCat cell lines were not authenticated (original source: ECACC and Deutsches Krebsforschungszentrum DKFZ, respectively). HeLa cells were grown in DMEM (1 g/L glucose, Gibco) medium completed with 5% FCS and 40 μg/mL gentamicin, diluted every 3rd/4th day 1/10. HaCat cells were grown in DMEM (1 g/L glucose, Gibco) medium completed with 10% FCS and 40 μg/mL gentamicin, diluted every 3rd/4th day 1/4. Jurkat cells were grown in RPMI (Gibco) medium completed with 10% FCS and 40 μg/mL gentamicin, diluted every 3rd/4th day 1/12. All cells were kept at 37 °C and 5% CO2. For proteomics analyses cells were seeded on T-175 flasks. After they reached confluency, adherent cells were washed with PBS once and collected by scraping with ice-cold lysis buffer (Hepes-KOH pH 7.5 50 mM, NaCl 150 mM, Triton X-100 1%, complete EDTA-free protease inhibitor cocktail 1×, EDTA 2 mM, TCEP 5 mM, glycerol 10%). Jurkat cells were collected by 1000 g × centrifugation, washed once with PBS, then collected by 1000 g × 5 min centrifugation again and lysed in ice-cold lysis buffer. Lysates were sonicated 4 × 20 s with 1 s long pulses on ice, then incubated rotating at 4 °C for 30 min. Lysates were centrifuged at 12,000 rpm 4 °C for 20 min and supernatant was kept for further analysis. Concentration determination was carried out by standard Bradford method (Bio-Rad Protein Assay Dye Reagent #5000006) using BSA (MP BIomedicals #160069) as control on a Bio-Rad SmartSpec 3000 spectrophotometer instrument.
For PBM-AP-MS experiments, 30 μl streptavidin resin was mixed with biotin or peptide at 50–60 μM concentration in 6–6.5 resin volume for 60 min to achieve resin saturation. For PDZ-AP-MS experiments, 30 μl streptavidin resin was mixed with biotinylated MBP or MBP-PDZ at 40-50 μM concentration in >1000× resin volume for 60 min to achieve resin saturation. After saturation, resins were washed a single time (ten resin volume, holdup buffer), and were depleted with biotin (1 mM biotin, 5–10 resin volume, 10 min). Finally, resins were washed two times. 0.5 ml 2 mg/ml cell lysate was added to the dry resin (1 mg total input) and were incubated at 4 °C for 2 h. Then, the beads were washed three times with 10 resin volume buffer containing: 50 mM TRIS pH 8.5, 150 mM NaCl, 1% TritonX-100, 10× complete EDTA-free protease inhibitor cocktail, 2 mM EDTA, 1 mM TCEP. Then, the beads were washed two times with ten resin volume buffer containing: 50 mM TRIS pH 8.5, 150 mM NaCl, 1 mM TCEP. Finally, captured protein was eluted from the resin in two steps and the eluted fractions were pooled. For each elution the beads were incubated for 30 min with three resin volume buffer containing: 20 mM TRIS pH8.5, 100 mM NaCl, 500 μM TCEP, 8 M Urea. Between each step, the beads were separated by mild centrifugation and the supernatant was removed by gentle pipetting.
The samples were precipitated with TCA 20% overnight at 4 °C and centrifuged at 14,000 rpm for 10 min at 4 °C. The protein pellets were washed twice with 1 mL cold acetone and air dried. The protein extracts were solubilized in urea 8 M, reduced with 5 mM TCEP for 30 min, and alkylated with 10 mM iodoacetamide for 30 min in the dark. Double digestion was performed at 37 °C with 500 ng endoproteinase Lys-C for 4 h, followed by fourfold dilution and an overnight digestion with 500 ng trypsin. Peptide mixtures were then desalted on C18 spin-column and dried on Speed-Vacuum.
Samples were analyzed using an Ultimate 3000 nano-RSLC (Thermo Scientific, San Jose California) coupled in line with a LTQ-Orbitrap ELITE mass spectrometer via a nano-electrospray ionization source (Thermo Scientific, San Jose California). […]

HPV30E6 ({Biotin-ttds}-RHTTSTETAV)
Enrichment values compared to biotin controls (prey APBA1, PBM peptide bait): 2.1 | Enrichment values compared to biotin controls (prey DLG4, PBM peptide bait): 4.1 | Enrichment values compared to biotin controls (prey DVL2, PBM peptide bait): 0.9 | Enrichment values compared to biotin controls (prey GOPC, PBM peptide bait): 1.2 | Enrichment values compared to biotin controls (prey InaDl, PBM peptide bait): 0.6 | Enrichment values compared to biotin controls (prey LAP2, PBM peptide bait): 2.7 | Enrichment values compared to biotin controls (prey LNX2, PBM peptide bait): 0.543 | Enrichment values compared to biotin controls (prey MAGI3, PBM peptide bait): 2.1 | Enrichment values compared to biotin controls (prey MPP1, PBM peptide bait): 1.4 | Enrichment values compared to biotin controls (prey MPP5, PBM peptide bait): 1.1 | Enrichment values compared to biotin controls (prey MPP6, PBM peptide bait): 1.2 | Enrichment values compared to biotin controls (prey MPP7, PBM peptide bait): 2.8 | Enrichment values compared to biotin controls (prey MYO18A, PBM peptide bait): 1.1 | Enrichment values compared to biotin controls (prey PDLIM2, PBM peptide bait): 1.5 | Enrichment values compared to biotin controls (prey PDLIM5, PBM peptide bait): 0.9 | Enrichment values compared to biotin controls (prey PDLIM7, PBM peptide bait): 1.1 | Enrichment values compared to biotin controls (prey PDZD11, PBM peptide bait): 3.0 | Enrichment values compared to biotin controls (prey PSMD9, PBM peptide bait): 0.7 | Enrichment values compared to biotin controls (prey SIPA1L1, PBM peptide bait): 1.1 | Enrichment values compared to biotin controls (prey SIPA1L2, PBM peptide bait): 0.65 | Enrichment values compared to biotin controls (prey SNTB1, PBM peptide bait): 3.6 | Enrichment values compared to biotin controls (prey SNTB2, PBM peptide bait): 1.0 | Enrichment values compared to biotin controls (prey SNX27, PBM peptide bait): 14.6 | Enrichment values compared to biotin controls (prey SYNJ2BP, PBM peptide bait): 1.5 | Enrichment values compared to biotin controls (prey TX1B3, PBM peptide bait): 1.2

HPV18E6
Enrichment values compared to biotin controls (prey APBA1, PBM peptide bait): 5.1 | Enrichment values compared to biotin controls (prey DLG4, PBM peptide bait): 3.2 | Enrichment values compared to biotin controls (prey DVL2, PBM peptide bait): 1.0 | Enrichment values compared to biotin controls (prey GOPC, PBM peptide bait): 15.5 | Enrichment values compared to biotin controls (prey InaDl, PBM peptide bait): 0.8 | Enrichment values compared to biotin controls (prey LAP2, PBM peptide bait): 2.3 | Enrichment values compared to biotin controls (prey LNX2, PBM peptide bait): 1.0 | Enrichment values compared to biotin controls (prey MAGI3, PBM peptide bait): 5.4 | Enrichment values compared to biotin controls (prey MPP1, PBM peptide bait): 0.547 | Enrichment values compared to biotin controls (prey MPP5, PBM peptide bait): 3.3 | Enrichment values compared to biotin controls (prey MPP6, PBM peptide bait): 2.5 | Enrichment values compared to biotin controls (prey MPP7, PBM peptide bait): 4.4 | Enrichment values compared to biotin controls (prey MYO18A, PBM peptide bait): 0.4 | Enrichment values compared to biotin controls (prey PDLIM2, PBM peptide bait): 1.5 | Enrichment values compared to biotin controls (prey PDLIM5, PBM peptide bait): 0.8 | Enrichment values compared to biotin controls (prey PDLIM7, PBM peptide bait): 1.1 | Enrichment values compared to biotin controls (prey PDZD11, PBM peptide bait): 1.0 | Enrichment values compared to biotin controls (prey PSMD9, PBM peptide bait): 0.8 | Enrichment values compared to biotin controls (prey SIPA1L1, PBM peptide bait): 1.2 | Enrichment values compared to biotin controls (prey SIPA1L2, PBM peptide bait): 1.1 | Enrichment values compared to biotin controls (prey SNTB1, PBM peptide bait): 6.6 | Enrichment values compared to biotin controls (prey SNTB2, PBM peptide bait): 1.1 | Enrichment values compared to biotin controls (prey SNX27, PBM peptide bait): 16.6 | Enrichment values compared to biotin controls (prey SYNJ2BP, PBM peptide bait): 14.2 | Enrichment values compared to biotin controls (prey TX1B3, PBM peptide bait): 7.1

HPV35E6 ({Biotin-ttds}-SKPTRRETEV)
Enrichment values compared to biotin controls (prey APBA1, PBM peptide bait): 2.9 | Enrichment values compared to biotin controls (prey DLG4, PBM peptide bait): 3.9 | Enrichment values compared to biotin controls (prey DVL2, PBM peptide bait): 1.1 | Enrichment values compared to biotin controls (prey GOPC, PBM peptide bait): 1.3 | Enrichment values compared to biotin controls (prey InaDl, PBM peptide bait): 0.9 | Enrichment values compared to biotin controls (prey LAP2, PBM peptide bait): 2.0 | Enrichment values compared to biotin controls (prey LNX2, PBM peptide bait): 0.8 | Enrichment values compared to biotin controls (prey MAGI3, PBM peptide bait): 3.7 | Enrichment values compared to biotin controls (prey MPP1, PBM peptide bait): 1.3 | Enrichment values compared to biotin controls (prey MPP5, PBM peptide bait): 1.4 | Enrichment values compared to biotin controls (prey MPP6, PBM peptide bait): 1.4 | Enrichment values compared to biotin controls (prey MPP7, PBM peptide bait): 2.9 | Enrichment values compared to biotin controls (prey MYO18A, PBM peptide bait): 0.9 | Enrichment values compared to biotin controls (prey PDLIM2, PBM peptide bait): 1.7 | Enrichment values compared to biotin controls (prey PDLIM5, PBM peptide bait): 0.851 | Enrichment values compared to biotin controls (prey PDLIM7, PBM peptide bait): 1.2 | Enrichment values compared to biotin controls (prey PDZD11, PBM peptide bait): 1.8 | Enrichment values compared to biotin controls (prey PSMD9, PBM peptide bait): 0.748 | Enrichment values compared to biotin controls (prey SIPA1L1, PBM peptide bait): 1.1 | Enrichment values compared to biotin controls (prey SIPA1L2, PBM peptide bait): 1.1 | Enrichment values compared to biotin controls (prey SNTB1, PBM peptide bait): 5.0 | Enrichment values compared to biotin controls (prey SNTB2, PBM peptide bait): 1.1 | Enrichment values compared to biotin controls (prey SNX27, PBM peptide bait): 2.9 | Enrichment values compared to biotin controls (prey SYNJ2BP, PBM peptide bait): 12.5 | Enrichment values compared to biotin controls (prey TX1B3, PBM peptide bait): 4.1
